Experimental data as given in US20130085150A1, “ANALOGUES FOR THE TREATMENT OR PREVENTION OF FLAVIVIRUS INFECTIONS” (Vertex Pharmaceuticals Incorporated, priority 2010, published 2013).
Like-named read-outs stand apart in the source and are kept apart here.

System: HCV (Ib) RNA replication, Huh-ET replicon cells
Assay: Cell-based luciferase reporter HCV (Ib) RNA replication assay
Settings: Hepatitis C virus, 96 h
[1] = HCV 1b replicon, luciferase, 4 days, read-out: EC50_ib

From the text: Cell-Based Luciferase Reporter HCV (Ib) RNA Replication Assay Cell Culture
This cell line allows measurement of HCV RNA replication and translation by measuring luciferase activity. […] The Huh-ET cell line has the same features as those mentioned for Huh-5.2 cell line, except that ET cells are more robust and contain an adaptative mutation in the HCV NS4B gene instead of NS5A. Both cell lines are maintained in cultures at a sub-confluent level (<85%) as the level of replicon RNA is highest in actively proliferating cells. The culture media used for cell passaging consist of DMEM (Gibco BRL Laboratories, Mississauga, ON, Canada) supplemented with 10% foetal bovine serum with 1% penicilin/streptomycin, 1% glutamine, 1% sodium pyruvate, 1% non-essential amino acids, and 180 μg/ml of G418 final concentration. Cells are incubated at 37° C., in an atmosphere of 5% CO2 and passaged twice a week to maintain sub-confluence.
Approximately 3000 viable Huh-ET cells (100 μl) are plated per well in a white opaque 96-well microtiter plate. The cell culture media used for the assay is the same as described above except that it contains no G418 and no phenol red. After an incubation period of 3-4 hours at 37° C. in a 5% CO2 incubator, compounds (100 μl) are added at various concentrations. Cells are then further incubated for 4 days at 37° C. in a 5% CO2 incubator. Thereafter, the culture media is removed and cells are lysed by the addition of 95 μL of the luciferase buffer (luciferin substrate in buffered detergent). Cell lysates are incubated at room temperature and protected from direct light for at least 10 minutes. Plates are read for luciferase counts using a luminometer (Wallac MicroBeta Trilux, Perkin Elmer™, MA, USA).
Curves are fitted to data points using nonlinear regression analysis, and IC50s are interpolated from the resulting curve using GraphPad Prism software, version 2.0 (GraphPad Software Inc., San Diego, Calif., USA).

Compound | EC50 [1] [µM] | EC50 (read-out: EC50_ib (uM)) [µM]
CCCCN(Cc1nc2cc(C#Cc3ccc4[nH]c(C(=O)NC5CC5)cc4c3)ccc2[nH]1)C(=O)OCc1ccccc1 [Compound 1] | 0.005 to 5 | –
CC(C)(C)OC(=O)N1CCC[C@@H]1c1cn2cc(-c3ccc(-c4ccc5nc([C@H]6CCCN6C(=O)OC(C)(C)C)cn5c4)cc3)ccc2n1 [Compound 2] | 0.005 to 5 | –
c1cc(-c2ccc3nc([C@H]4CCCN4)cn3c2)ccc1-c1ccc2nc([C@H]3CCCN3)cn2c1 [Compound 3] | 0.005 to 5 | –
COC(=O)N[C@H](C(=O)N1C[C@@H](C)CC1c1nc2cc(-c3ccc(-c4ccc5nc(C6C[C@H](C)CN6C(=O)[C@@H](NC(=O)OC)C(C)C)oc5c4)cc3)ccc2[nH]1)C(C)C (stereo partly shown) [Compound 47] | – | < 0.005
